Our source for the IC50 values is patent US20260232666A1, “COMPOSITIONS AND METHODS FOR INHIBITION OF RAS” (TheRas, Inc., priority 2023, published 2026).

For orientation: IC50 means the midpoint of a concentration-inhibition curve.

In assay [1] the target is T1, Avi-KRAS G12C (1-169) GppNHp/RAF1 RBD-3×FLAG (52-151) (Homo sapiens, UniProt P01116, G12C).
T1 construct: Avi-KRAS G12C (1-169) GppNHp; Avi (N)
In words: Raf1 RBD-KRAS G12C-GppNHp disruption assay (protein:protein interaction HTRF). Format: biochemical. In short, it runs like this:
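HTRF measuring RAF1 RBD binding to GppNHp-loaded KRAS G12C (50 nM) in Tris pH 7.5, 100 mM NaCl, 5 mM MgCl2, 10% DMSO. Compound, KRAS, RBD and detection reagents each added sequentially with 1 h room-temperature incubations; 10-point titration; excitation 320 nm, emission 615 nm; activity as % of DMSO; IC50 derived.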
(In general: Time-resolved FRET reads energy transfer from a long-lived donor to a nearby acceptor.)

The subject of another assay is pERK in NCI-H358 cells. In words: Cell-based pERK HTRF assay (pERK inhibition in H358 cells). To be noted: 30 min incubation. In short, it runs like this:
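NCI-H358 cells were seeded at 4×10^4 cells/well in RPMI/10% FBS, then treated next day for 30 min at 0.25% DMSO (9-point, 3-fold series from 75 μM). Lysates were read by HTRF (d2/Eu cryptate antibody pair, 615 nm emission) after 4–24 h at room temperature to give pERK IC50.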

T1 sequence (P01116 1-169 isoform P01116-2 G12C limits assumed): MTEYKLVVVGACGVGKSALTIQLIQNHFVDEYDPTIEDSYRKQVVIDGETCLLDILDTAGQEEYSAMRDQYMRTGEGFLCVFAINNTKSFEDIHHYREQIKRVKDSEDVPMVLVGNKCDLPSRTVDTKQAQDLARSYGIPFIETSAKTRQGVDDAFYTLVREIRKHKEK

Regarding `C=CC(=O)N1CC[C@@H](N(C)c2nc(OC[C@@H]3CCCN3C)nc3c(F)c(-c4ccc(F)c5sc(N)c(C#N)c45)c(C(F)(F)F)cc23)[C@H]1C` [Compound 67], the IC50 in assay [1] was below 500 nM; with pERK in NCI-H358 cells, below 100 nM.

Consider `C=CC(=O)N1CC[C@@H](N(CC)c2nc(OC[C@@H]3C[C@@H](OC)CN3C)nc3c(F)c(-c4ccc(F)c5sc(N)c(C#N)c45)c(Cl)cc23)[C@H]1C` [Compound 73], for which the IC50 in assay [1] is below 500 nM; in the assay with pERK in NCI-H358 cells (Homo sapiens, NCI-H358, 0.5 h), below 100 nM.

On to `C=CC(=O)N1CC[C@@H](N(CC)c2nc(OC[C@@H]3CC4(CC4)CN3C)nc3c(F)c(-c4ccc(F)c5sc(N)c(C#N)c45)c(Cl)cc23)[C@H]1C` [Compound 75], for which the figures for the IC50 (in assay [1]; in the assay on pERK in NCI-H358 cells) were below 500 nM and below 100 nM, respectively.

As for `C=CC(=O)N1CC[C@@H](N(CC)c2nc(OC[C@@]34CCCN3C[C@H](F)C4)nc3cc(-c4ccc(F)c5sc(N)c(C#N)c45)c(F)cc23)[C@H]1CC` [Compound 76], the IC50 in assay [1] was below 500 nM; in the assay on pERK in NCI-H358 cells (Homo sapiens, NCI-H358, 0.5 h), 100 to 1000 nM.

With `C=CC(=O)N1CC[C@@H](N(CC)c2nc(OC[C@@]34CCCN3C[C@H](F)C4)nc3c(F)c(-c4ccc(F)c5sc(N)c(C#N)c45)c(Cl)cc23)[C@@H]1C` [Compound 77], the IC50 in assay [1] was below 500 nM; with pERK in NCI-H358 cells (Homo sapiens, NCI-H358, 0.5 h), below 100 nM.

For `C=CC(=O)N1CC[C@@H](N(C)c2nc(OC[C@@]34CCCN3C[C@H](F)C4)nc3c(F)c(-c4nc(N)cc(C)c4C(F)(F)F)c(Cl)cc23)[C@H]1C` [Compound 78, 1-[(2R,3R)-3-[[7-[6-amino-4-methyl-3-(trifluoromethyl)-2-pyridyl]-6-chloro-8-fluoro-2-[[(2R,8S)-2-fluoro-1,2,3,5,6,7-hexahydropyrrolizin-8-yl]methoxy]quinazolin-4-yl]-methyl-amino]-2-methyl-pyrrolidin-1-yl]prop-2-en-1-one], the IC50 in assay [1] was below 500 nM; in the assay on pERK in NCI-H358 cells (Homo sapiens, NCI-H358, 0.5 h) it was below 100 nM.

As for `C=CC(=O)N1CC[C@@H](N(C)c2nc(OC[C@@H]3C[C@@H](OC)CN3C)nc3c(F)c(-c4ccc(F)c5sc(N)c(C#N)c45)c(Cl)cc23)[C@@H]1C` [Compound 79], the IC50 in assay [1] was below 500 nM; with pERK in NCI-H358 cells (Homo sapiens, NCI-H358, 0.5 h) it was below 100 nM.

For `C=CC(=O)N1CC[C@@H](N(C)c2nc(N3CC(N(C)C)C3)nc3c(F)c(-c4ccc(F)c5sc(N)c(C#N)c45)c(C(F)(F)F)cc23)[C@H]1C` [Compound 80], the half-inhibitory concentration (IC50) in assay [1] is below 500 nM; in the assay with pERK in NCI-H358 cells (Homo sapiens, NCI-H358, 0.5 h), 100 to 1000 nM.

With `C=CC(=O)N1CC[C@@H](N(C)c2nc(OC[C@@H]3C[C@@H](F)CN3C)nc3c(F)c(-c4ccc(F)c5sc(N)c(C#N)c45)c(Cl)cc23)[C@@H]1C` [Compound 82], the IC50 in assay [1] was below 500 nM; in the assay with pERK in NCI-H358 cells (Homo sapiens, NCI-H358, 0.5 h) it was below 100 nM.

As to `C=CC(=O)N1CC[C@@H](N(C)c2nc(OC[C@@H]3CCCN3C)nc3c(F)c(-c4ccc(F)c5sc(N)c(C#N)c45)c(Cl)cc23)[C@@H]1C` [Compound 83], the IC50 is below 500 nM in assay [1] and below 100 nM with pERK in NCI-H358 cells (Homo sapiens, NCI-H358, 0.5 h).

With `C=CC(=O)N1CC[C@@H](N(C)c2nc(OC[C@@H]3CCCN3CC)nc3c(F)c(-c4ccc(F)c5sc(N)c(C#N)c45)c(Cl)cc23)[C@@H]1C` [Compound 84], the IC50 in assay [1] is below 500 nM; with pERK in NCI-H358 cells (Homo sapiens, NCI-H358, 0.5 h), below 100 nM.

In the case of `C=CC(=O)N1CC[C@@H](N(CC)c2nc(OC[C@@]34CCCN3C[C@H](F)C4)nc3c(F)c(-c4ccc(F)c5sc(N)c(C#N)c45)c(C(F)(F)F)cc23)[C@@H]1C` [Compound 86], the IC50 in assay [1] was below 500 nM; with pERK in NCI-H358 cells (Homo sapiens, NCI-H358, 0.5 h), below 100 nM.

Take `C=CC(=O)N1CC[C@@H](N(C)c2nc(OCC3(CN4CCOCC4)CC3)nc3c(F)c(-c4ccc(F)c5sc(N)c(C#N)c45)c(C(F)(F)F)cc23)[C@H]1C` [Compound 87]: the 50% inhibitory concentration (IC50) in assay [1] was below 500 nM; in the assay on pERK in NCI-H358 cells (Homo sapiens, NCI-H358, 0.5 h), below 100 nM.

For `C=CC(=O)N1CC[C@@H](N(C)c2nc(OC[C@@H]3CCCN3CC)nc3c(F)c(-c4ccc(F)c5sc(N)c(C#N)c45)c(C(F)(F)F)cc23)[C@H]1C` [Compound 88], the IC50 is below 500 nM in assay [1] and below 100 nM with pERK in NCI-H358 cells (Homo sapiens, NCI-H358, 0.5 h).

Take `C=CC(=O)N1CC[C@@H](N(C)c2nc(OC[C@@]34CCCN3C[C@H](F)C4)nc3c(F)c(-c4ccc(F)c5oc(N)c(C#N)c45)c(C(F)(F)F)cc23)[C@H]1C` [Compound 90]: the IC50 in assay [1] is below 500 nM; in the assay with pERK in NCI-H358 cells (Homo sapiens, NCI-H358, 0.5 h) it was below 100 nM.

`C=CC(=O)N1CC[C@@H](N(C)c2nc(OC[C@@]34CCCN3C[C@H](F)C4)nc3c(F)c(-c4nc(N)cc(C)c4C(F)(F)F)c(C(F)(F)F)cc23)[C@@H]1C` [Compound 91]: the IC50 in assay [1] was below 500 nM; in the assay on pERK in NCI-H358 cells (Homo sapiens, NCI-H358, 0.5 h), below 100 nM.

For `C=CC(=O)N1CC[C@@H](N(C)c2nc(OC[C@@H]3CC4(CC4)CN3CC)nc3c(F)c(-c4ccc(F)c5sc(N)c(C#N)c45)c(Cl)cc23)[C@@H]1C` [Compound 92], the IC50 in assay [1] was below 500 nM; in the assay with pERK in NCI-H358 cells (Homo sapiens, NCI-H358, 0.5 h), below 100 nM.

Consider `C=CC(=O)N1CC[C@@H](N(C)c2nc(OC[C@@H]3CC4(CC4)CN3CC)nc3c(F)c(-c4ccc(F)c5sc(N)c(C#N)c45)c(C(F)(F)F)cc23)[C@@H]1C` [Compound 95], for which the concentration for half-maximal inhibition (IC50) in assay [1] is below 500 nM; in the assay with pERK in NCI-H358 cells (Homo sapiens, NCI-H358, 0.5 h) it was below 100 nM.

For the compound `C=CC(=O)N1CC[C@@H](N(C)c2nc(OC[C@@H]3CC4(CC4)CN3CC)nc3c(F)c(-c4ccc(F)c5sc(N)c(C#N)c45)c(Cl)cc23)[C@H]1C` [Compound 97], the IC50 is below 500 nM in assay [1] and below 100 nM with pERK in NCI-H358 cells (Homo sapiens, NCI-H358, 0.5 h).

For `C=CC(=O)N1CC[C@@H](N(C)c2nc(OC[C@@H]3C[C@@H](F)CN3CC)nc3c(F)c(-c4ccc(F)c5sc(N)c(C#N)c45)c(Cl)cc23)[C@H]1C` [Compound 98], the IC50 in assay [1] was in the range of 500 to 5000 nM; in the assay on pERK in NCI-H358 cells (Homo sapiens, NCI-H358, 0.5 h) it was 100 to 1000 nM.

Consider `C=CC(=O)N1CC[C@@H](N(C)c2nc(OC[C@@H]3C[C@@H](OC)CN3CC)nc3c(F)c(-c4ccc(F)c5sc(N)c(C#N)c45)c(Cl)cc23)[C@H]1C` [Compound 99], for which the IC50 in assay [1] was below 500 nM; in the assay with pERK in NCI-H358 cells (Homo sapiens, NCI-H358, 0.5 h), below 100 nM.

For the compound `C=CC(=O)N1CC[C@@H](N(C)c2nc(OC[C@@H]3C[C@@H](OC)CN3CC)nc3c(F)c(-c4ccc(F)c5sc(N)c(C#N)c45)c(Cl)cc23)[C@@H]1C` [Compound 100], the half-inhibitory concentration (IC50) in assay [1] is below 500 nM; in the assay with pERK in NCI-H358 cells (Homo sapiens, NCI-H358, 0.5 h), below 100 nM.
